This note sets out measurements from patent publication US20220380385A1, “PYRIMIDINE FIVE-MEMBERED NITROGEN HETEROCYCLIC DERIVATIVE, PREPARATION METHOD THEREOF AND PHARMACEUTICAL USE THEREOF” (TUOJIE BIOTECH(SHANGHAI) CO., LTD., priority 2019, published 2022).

One data set has as its target T1, CYP2D6 (Homo sapiens, UniProt P10635).
T1 construct: Mixed human liver microsomes from 150 donors; tissue Corning 452117; host or cells: pooled human liver microsomes (150 donors)
The data set is described as follows: CYP inhibition in mixed human liver microsomes, CYP2D6 (bufurolol hydrochloride). The class given is in vitro ADME. As for the experimental part: (§1) Mixed human liver microsomes from 150 donors (purchased from Corning, catalog number 452117) were used to evaluate the representative substrate metabolic responses of the five main human CYP subtypes (CYP1A2, CYP2C9, CYP2C19, CYP2D6 and CYP3A4/5). The influence of different concentrations of test compounds on the metabolic responses of phenacetin (CYP1A2), diclofenac sodium (CYP2C9), S-mephenytoin (CYP2C19), bufurolol hydrochloride (2D6) and midazolam (CYP3A4/5) was determined by liquid chromatography tandem mass spectrometry (LC/MS/MS).
(§2) 200 μL of the reaction system (100 mmol/L phosphate buffer, pH 7.4, containing 0.3% DMSO, 0.6% acetonitrile and 0.1% methanol by volume respectively) with 30 µM phenacetin, 10 μM diclofenac sodium, 35 μM S-mephenytoin, 5 μM bufurolol hydrochloride, 3 μM midazolam, 1 mM NADPH, test compound (at a concentration of 0.1, 0.3, 1, 3, 10 and 30 μmol/L respectively) or positive compound or blank control and mixed human liver microsomes (0.2 mg/mL) was incubated at 37° C. for 5 minutes. […]
(§3) The peak area was calculated based on the chromatograms. The residual activity ratio (%) was calculated using the following equation: […]
(§4) The CYP median inhibitory concentration (IC50) was calculated by Excel XLfit 5.3.1.3.
A general note: Microsomes from liver hold many membrane-bound enzymes, among them those of drug oxidation.

In data set [1] the target is T2, full-length SHP2 (aa 1-593) (Homo sapiens, UniProt Q06124).
T2 sequence (Q06124 1-593): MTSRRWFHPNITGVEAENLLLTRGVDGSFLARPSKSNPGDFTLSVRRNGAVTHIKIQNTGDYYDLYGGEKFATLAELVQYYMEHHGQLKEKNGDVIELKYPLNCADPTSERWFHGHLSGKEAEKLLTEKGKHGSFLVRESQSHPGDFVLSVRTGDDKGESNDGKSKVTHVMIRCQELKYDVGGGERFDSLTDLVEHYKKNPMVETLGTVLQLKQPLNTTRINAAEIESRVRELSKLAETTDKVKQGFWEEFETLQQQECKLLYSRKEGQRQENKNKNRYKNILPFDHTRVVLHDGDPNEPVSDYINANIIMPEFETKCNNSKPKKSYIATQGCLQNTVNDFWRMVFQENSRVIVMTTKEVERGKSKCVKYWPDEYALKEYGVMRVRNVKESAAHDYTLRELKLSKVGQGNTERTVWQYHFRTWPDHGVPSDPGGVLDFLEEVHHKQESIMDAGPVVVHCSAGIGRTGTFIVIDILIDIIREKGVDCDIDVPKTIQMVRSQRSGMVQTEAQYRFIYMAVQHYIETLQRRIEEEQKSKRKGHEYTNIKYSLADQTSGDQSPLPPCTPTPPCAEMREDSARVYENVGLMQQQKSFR
The data set is described as follows: Activity on SHP2 phosphatase (DiFMUP fluorescence).
Experimental: 0.2 nM recombinantly expressed full-length SHP2 (aa 1-593), 0.5 nM activated polypeptide IRS1 with dual phosphorylation sites (sequence: H2N-LN(pY)IDLDLY(dPEG8)LST(pY)ASINFQK-amide), and a series of concentrations of the test compound (final concentrations of 1 μM, 0.3 μM, 0.1 μM, 0.03 μM, 0.01 μM, 0.003 μM, 0.001 M, 0.0003 μM, 0.0001 μM and 0.00003 μM) were added into the phosphatase reaction solution (60 mM HEPES, PH 7.5 0.005% Brij-35, 75 mM NaCl, 75 mM KCl, 1 mM EDTA, 5 mM DTT), followed by shaking (350 rpm) at room temperature for 30 minutes. Then the reaction substrate DiFMUP was added at a final concentration of 30 μM, and the reaction solution was reacted at room temperature for 30 minutes. Then the phosphatase reaction was stopped by adding 5 μL of the reaction stop solution (60 mM HEPES, pH 7.5, 0.2% SDS). Ex358 nm/Em455 fluorescence value was read on the fluorescence plate reader MD SpectraMax.
The IC50 value of compounds was calculated by using the four-parameter logit method. […] Different concentrations correspond to different inhibition rates of phosphatase activity. A reverse curve was plotted and the IC50 of the inhibitors was calculated from the curve. The IC50 of compounds was calculated by using Primer premier 6.0.

A further data set has as its target T3, CYP2C19 (Homo sapiens, UniProt P33261).
T3 construct: Mixed human liver microsomes from 150 donors; tissue Corning 452117; host or cells: pooled human liver microsomes (150 donors)
The data set can be described thus: CYP inhibition in mixed human liver microsomes, CYP2C19 (S-mephenytoin). It is filed as in vitro ADME. As to the method:
as §1, §2, §3, §4

Data set [2] is described as follows: In vivo pharmacokinetics in cynomolgus monkeys (gavage). The settings on record: male, plasma, po, 5 mg/kg, original drug, cynomolgus monkey, 5 mpk. As to the method: Cynomolgus monkeys were used as the test animals. The plasma drug concentration at different times after the cynomolgus monkeys were given the compounds of the invention by gavage was determined by using the LC/MS/MS method. The in vivo pharmacokinetic behavior of the compounds of the present invention in cynomolgus monkeys was studied, and pharmacokinetic characteristics thereof were evaluated.
Test animals: 3 healthy, 2-5 years old male cynomolgus monkeys in each group;
Administration by gavage: a certain amount of drug was weighed, and 0.5% by mass of hypromellose, 0.1% by volume of Tween 80 and 99.4% by volume of water were added thereto to formulate a white suspension at 1 mg/mL.
The cynomolgus monkeys were fasted overnight, and then the drug was administered by gavage at a dose of 5 mg/kg.
Cynomolgus monkeys were administered the compounds of the present invention by gavage. At 0.25, 0.5, 1, 2, 4, 8 and 24 hours after administration, 0.2 mL of blood was collected from the peripheral vein and placed in a test tube containing EDTA-K2. The tube was centrifuged at 2 to 8° C., 2000 rpm for 10 minutes to separate the plasma, which was stored at −75° C.
Determination of the content of the test compounds in cynomolgus monkey plasma after administration of different concentrations of drugs by gavage: 55 μL of cynomolgus monkey plasma at each time after administration was taken, and 200 μL of a solution of the internal standard verapamil or dexamethasone in acetonitrile. The mixture was mixed by vortexing for 30 seconds, centrifuged at 4° C., 3900 rpm for 15 minutes. The supernatant of the plasma samples were collected and diluted three times with water, and 15 μL was taken for LC/MS/MS analysis.

A further data set has as its system CYP3A4/5. The data set is described as follows: CYP inhibition in mixed human liver microsomes, CYP3A4/5 (midazolam). The settings on record: pH 7.4, mixed human liver microsomes 0.2 mg/mL, read-out: Median inhibitory concentration (IC50) CYP 3A4/5. It is filed as in vitro ADME. As for the experimental part:
as §1, §2, §3, §4

The target of a further data set is T4, CYP1A2 (Homo sapiens, UniProt P05177).
T4 construct: Mixed human liver microsomes from 150 donors; tissue Corning 452117; host or cells: pooled human liver microsomes (150 donors)
T4 sequence (P05177 1-516): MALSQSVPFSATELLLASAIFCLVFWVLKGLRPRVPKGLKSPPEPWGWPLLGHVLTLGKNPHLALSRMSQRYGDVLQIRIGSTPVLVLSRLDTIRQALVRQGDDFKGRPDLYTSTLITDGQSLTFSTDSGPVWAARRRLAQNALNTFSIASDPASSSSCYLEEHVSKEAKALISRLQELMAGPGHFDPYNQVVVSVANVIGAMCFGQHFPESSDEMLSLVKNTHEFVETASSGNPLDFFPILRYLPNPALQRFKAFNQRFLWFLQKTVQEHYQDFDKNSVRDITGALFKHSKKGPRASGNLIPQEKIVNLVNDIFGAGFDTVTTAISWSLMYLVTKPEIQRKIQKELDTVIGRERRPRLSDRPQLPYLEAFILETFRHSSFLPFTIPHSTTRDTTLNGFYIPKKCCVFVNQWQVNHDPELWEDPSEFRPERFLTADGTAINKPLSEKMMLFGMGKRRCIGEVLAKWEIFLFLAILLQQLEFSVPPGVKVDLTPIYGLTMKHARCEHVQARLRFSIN
The data set can be described thus: CYP inhibition in mixed human liver microsomes, CYP1A2 (phenacetin). The class given is in vitro ADME. As for the experimental part:
as §1, §2, §3, §4

The structures appear in SMILES notation.

T3 sequence (P33261 whole entry): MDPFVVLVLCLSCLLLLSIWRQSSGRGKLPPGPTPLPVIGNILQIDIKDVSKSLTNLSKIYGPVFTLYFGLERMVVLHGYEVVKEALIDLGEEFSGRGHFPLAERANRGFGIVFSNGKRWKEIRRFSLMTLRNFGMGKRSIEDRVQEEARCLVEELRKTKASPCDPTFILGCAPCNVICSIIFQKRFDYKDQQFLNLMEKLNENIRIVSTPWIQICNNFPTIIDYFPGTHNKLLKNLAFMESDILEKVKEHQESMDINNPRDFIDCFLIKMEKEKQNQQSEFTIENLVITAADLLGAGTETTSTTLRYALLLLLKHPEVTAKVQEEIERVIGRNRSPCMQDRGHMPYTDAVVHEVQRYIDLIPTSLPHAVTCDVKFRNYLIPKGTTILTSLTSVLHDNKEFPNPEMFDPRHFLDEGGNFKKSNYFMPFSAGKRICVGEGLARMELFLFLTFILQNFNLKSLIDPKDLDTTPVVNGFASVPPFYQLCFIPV
T1 sequence (P10635 whole entry): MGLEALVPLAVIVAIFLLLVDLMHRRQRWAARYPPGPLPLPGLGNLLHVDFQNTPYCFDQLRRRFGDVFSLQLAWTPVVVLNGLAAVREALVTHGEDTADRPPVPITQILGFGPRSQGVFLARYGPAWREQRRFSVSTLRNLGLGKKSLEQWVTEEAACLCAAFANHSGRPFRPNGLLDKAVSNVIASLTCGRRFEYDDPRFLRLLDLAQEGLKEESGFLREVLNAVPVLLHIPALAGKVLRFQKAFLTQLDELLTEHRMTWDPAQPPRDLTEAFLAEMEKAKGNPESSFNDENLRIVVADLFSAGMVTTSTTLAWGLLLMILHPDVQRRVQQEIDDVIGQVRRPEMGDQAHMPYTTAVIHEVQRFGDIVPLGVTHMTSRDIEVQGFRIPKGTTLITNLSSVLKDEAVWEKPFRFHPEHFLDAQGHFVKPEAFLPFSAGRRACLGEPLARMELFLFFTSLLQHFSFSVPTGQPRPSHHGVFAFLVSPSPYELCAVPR

A word on the AUC: it is concentration integrated over time. Broadly, the Cmax is the highest concentration seen after dosing. As to `[2H]C([2H])([2H])Nc1nccc(Sc2c(C)nc(N3CCC4(CC3)Cc3ncccc3[C@H]4N)n3ccnc23)c1Cl` [Example 3, (S)-1′-(8-((3-Chloro-2-((methyl-d3)amino)pyridin-4-yl)thio)-7-methylimidazo[1,2-c]pyrimidin-5-yl)-5,7-dihydrospiro[cyclopenta[b]pyridine-6,4′-piperidin]-5-amine], the IC50 on CYP2D6 was greater than 20 µM; in data set [1] it was 0.0045 µM; against CYP2C19, greater than 20 µM; on CYP1A2, 14.7 µM. In addition, in data set [2] (read-out: Area under curve AUC), the AUC was found to be 72300 ng·h/mL. Moreover, in data set [2] (read-out: Maximum blood conc. Cmax), the Cmax worked out at 12200 ng/mL. The IC50 at 5 min with CYP3A4/5 is greater than 20 µM.
